Literature values in patent publication US20110118360A1, “AGENT FOR ACTIVATING STEM CELLS” (priority 2008, published 2011).

Tests used:
neutrophils = details: shortened from 5

For `CC(C)C[C@H](NC(=O)[C@H](Cc1ccccc1)NC(=O)c1cnccn1)B(O)O` [bortesomib, [(1R)-3-methyl-1 [[(2S)-1-oxo-3-phenyl-2-[(pirasinilcarbonil)amino]propyl]amino]butyl]], the “effect on mesenchymal stem cells” value (mesenchymal stem cells) is listed as “direct pharmacological effect on mesenchymal stem cells” and the “effect on 26S proteasome activity” value (26S proteasome) is listed as “highly selective reversible inhibitor”.

B1: Filgastrim: glycoprotein consisting of 175 amino acids obtained by expression of a human gene in E. coli (protein, chains of the INN, looked up)
chain: MTPLGPASSLPQSFLLKCLEQVRKIQGDGAALQEKLCATYKLCHPEELVLLGHSLGIPWAPLSSCPSQALQLAGCLSQLHSGLFLYQGLLQALEGISPELGPTLDTLQLDVADFATTIWQQMEELGMAPALQPTQGAMPAFASAFQRRAGGVLVASHLQSFLEVSYRVLRHLAQP
modifications: N-terminal methionine, E. coli expressed
notes: glycoprotein consisting of 175 amino acids obtained by expression of a human gene in E. coli
In the case of B1, the “maturation period of neutrophils from the progenitor cells” value (neutrophils) is given as 1 days.
